Data set [1] concerns the target 72 kDa type IV collagenase (Homo sapiens, UniProt P08253). Put plainly: Inhibition of recombinant human MMP2 (110 to 452 residues) using Mca-Pro-Leu-Gly-Leu-Dpa-Ala-Arg-NH2 expressed in yeast expression system as substrate incubated for 15 mins followed by substrate addition and measured after 2 to 4 hrs by fluorescence based assay.
A further data set has as its target Neutrophil collagenase (Homo sapiens, UniProt P22894). Nature of the data set: Inhibition of recombinant human MMP8 (99 to 269 residues) using Mca-Pro-Leu-Gly-Leu-Dpa-Ala-Arg-NH2 expressed in Escherichia coli expression system as substrate incubated for 15 mins followed by substrate addition and measured after 2 to 4 hrs by fluorescence based assay.
For data set [2], the target named is Matrix metalloproteinase-9 (Homo sapiens, UniProt P14780). Nature of the data set: Inhibition of recombinant human MMP9 (107 to 449 residues) using Mca-Pro-Leu-Gly-Leu-Dpa-Ala-Arg-NH2 expressed in Escherichia coli expression system as substrate incubated for 15 mins followed by substrate addition and measured after 2 to 4 hrs by fluorescence based assay.
Data set [3] deals with T1, Collagenase 3 (Homo sapiens, UniProt P45452). Nature of the data set: Inhibition of recombinant human MMP13 (104 to 274 residues) using Mca-Pro-Leu-Gly-Leu-Dpa-Ala-Arg-NH2 expressed in Escherichia coli expression system as substrate incubated for 15 mins followed by substrate addition and measured after 2 to 4 hrs by fluorescence based assay.
A short description of data set [4]: Cytotoxicity against mouse SN-56 cells assessed as reduction in cell viability upto 100 uM incubated for 24 hrs by MTT assay. In kind it is cell-based. Conditions: sn-56, 24 h. For orientation: Formazan colour is commonly taken as a measure of viable cells.
Data set [5] concerns SN-56. Put plainly: Neuroprotective activity against H2O2-induced lipid peroxidation in mouse SN-56 cells assessed as increase in MDA level incubated for 24 hrs by lipid peroxidation MDA assay kit method. In kind it is functional, cell-based.
The nature of data set [6]: Neuroprotective activity against H2O2-induced lipid peroxidation in mouse SN-56 cells assessed as increase in MDA level at 1 to 150 uM incubated for 24 hrs by lipid peroxidation MDA assay kit method relative to control. The conditions noted are these: dose 1-150 µM. In kind it is functional.
Data set [7] relates to SN-56. Put plainly: Neuroprotective activity against H2O2-induced cytotoxicity in mouse SN-56 cells assessed as increase in cell viability at 10 to 100 uM incubated for 24 hrs by MTT assay. In kind it is functional, cell-based. Conditions: dose 10-100 µM.
Data set [8] addresses T1, Collagenase 3. Put plainly: Non-competitive inhibition of recombinant human MMP13 (104 to 274 residues) using Mca-Pro-Leu-Gly-Leu-Dpa-Ala-Arg-NH2 expressed in Escherichia coli expression system as substrate at 100 uM incubated for 15 mins followed by substrate addition and measured after 2 to 4 hrs by fluorescence based assay relative to control. Conditions: time 2-4.25 hrs.

Data set [9] deals with SN-56. Nature of the data set: Neuroprotective activity against H2O2-induced lipid peroxidation in mouse SN-56 cells assessed as increase in MDA level at 100 uM incubated for 24 hrs by lipid peroxidation MDA assay kit method. In kind it is functional, cell-based.

Active and inactive are the calls of the source. The calls are words filed in the database; no cut-off is given here.

Sequence of Matrix metalloproteinase-9 (P14780 whole entry, the tested form may be a part): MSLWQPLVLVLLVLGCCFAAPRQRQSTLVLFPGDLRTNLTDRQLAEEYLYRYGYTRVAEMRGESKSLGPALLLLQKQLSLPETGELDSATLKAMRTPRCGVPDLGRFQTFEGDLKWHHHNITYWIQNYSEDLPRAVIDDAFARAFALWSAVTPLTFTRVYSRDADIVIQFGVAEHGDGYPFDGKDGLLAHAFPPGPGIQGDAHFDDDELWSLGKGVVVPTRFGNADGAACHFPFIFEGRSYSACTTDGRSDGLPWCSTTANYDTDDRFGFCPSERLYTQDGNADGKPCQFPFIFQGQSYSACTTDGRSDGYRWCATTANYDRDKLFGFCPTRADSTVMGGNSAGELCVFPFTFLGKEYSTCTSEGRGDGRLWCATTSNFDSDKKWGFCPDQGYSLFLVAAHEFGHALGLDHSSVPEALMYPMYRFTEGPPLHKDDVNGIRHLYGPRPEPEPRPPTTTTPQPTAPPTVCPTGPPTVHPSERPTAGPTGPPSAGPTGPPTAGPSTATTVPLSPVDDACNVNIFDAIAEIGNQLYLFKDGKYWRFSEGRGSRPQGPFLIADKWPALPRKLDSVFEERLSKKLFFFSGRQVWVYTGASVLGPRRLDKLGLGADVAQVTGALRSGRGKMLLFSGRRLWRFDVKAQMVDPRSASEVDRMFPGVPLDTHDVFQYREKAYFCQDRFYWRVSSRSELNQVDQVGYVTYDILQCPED
Sequence of Neutrophil collagenase (P22894 whole entry, the tested form may be a part): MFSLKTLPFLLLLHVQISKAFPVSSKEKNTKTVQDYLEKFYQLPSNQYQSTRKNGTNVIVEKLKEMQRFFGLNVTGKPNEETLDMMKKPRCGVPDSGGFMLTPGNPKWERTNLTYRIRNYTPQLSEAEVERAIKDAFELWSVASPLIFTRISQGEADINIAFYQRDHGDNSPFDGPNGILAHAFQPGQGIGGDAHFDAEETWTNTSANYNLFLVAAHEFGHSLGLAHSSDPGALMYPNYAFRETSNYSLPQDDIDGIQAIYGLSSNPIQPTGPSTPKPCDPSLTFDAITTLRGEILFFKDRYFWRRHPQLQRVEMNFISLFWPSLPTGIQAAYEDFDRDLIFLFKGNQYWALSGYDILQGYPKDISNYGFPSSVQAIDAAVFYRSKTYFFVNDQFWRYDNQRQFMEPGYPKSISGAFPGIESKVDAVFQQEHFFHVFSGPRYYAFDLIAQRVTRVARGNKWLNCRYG
Sequence of 72 kDa type IV collagenase (P08253 whole entry, the tested form may be a part): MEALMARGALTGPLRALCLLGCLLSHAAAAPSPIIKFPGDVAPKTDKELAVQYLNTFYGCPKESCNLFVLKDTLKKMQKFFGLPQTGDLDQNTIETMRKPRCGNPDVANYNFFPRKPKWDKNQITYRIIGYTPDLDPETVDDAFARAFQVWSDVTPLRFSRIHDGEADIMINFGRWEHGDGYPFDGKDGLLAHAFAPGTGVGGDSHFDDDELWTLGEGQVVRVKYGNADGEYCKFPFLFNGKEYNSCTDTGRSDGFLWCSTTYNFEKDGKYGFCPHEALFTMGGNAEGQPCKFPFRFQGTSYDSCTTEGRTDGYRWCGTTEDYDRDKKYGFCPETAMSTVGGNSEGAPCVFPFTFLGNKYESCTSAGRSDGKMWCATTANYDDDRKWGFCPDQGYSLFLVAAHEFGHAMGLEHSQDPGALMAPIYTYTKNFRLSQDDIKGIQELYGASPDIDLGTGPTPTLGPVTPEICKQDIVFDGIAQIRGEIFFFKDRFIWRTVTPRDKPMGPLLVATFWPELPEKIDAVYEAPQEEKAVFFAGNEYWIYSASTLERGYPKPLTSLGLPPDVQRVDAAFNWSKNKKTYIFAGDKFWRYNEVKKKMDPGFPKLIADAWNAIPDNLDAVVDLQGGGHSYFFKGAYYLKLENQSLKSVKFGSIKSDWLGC

Consider `CN(C)c1ccc(Nc2cc(-c3ccccc3)cc3c2c(=O)[nH]c2ccccc23)cc1`, for which the 50% inhibitory concentration (IC50) (as a rule, the point on the concentration scale where inhibition reaches its midpoint) was 73 µM in data set [1], 84 µM at Neutrophil collagenase, 88 µM in data set [2] and 40 µM on Collagenase 3 [3]. For the same molecule, in data set [4], the Activity entry is reported as “Non-Toxic”.

Consider `O=c1[nH]c2ccccc2c2cc(-c3ccccc3)cc(Nc3ccccc3)c12`, for which the IC50 in data set [1] is 13 µM; at Neutrophil collagenase it was 69 µM; in data set [2], 54 µM; on Collagenase 3 [3], 42 µM. Besides, the Activity entry in [4] is listed as “Non-Toxic”.

With `Nc1ccc(-c2cc(Nc3ccccc3)c3c(=O)[nH]c4ccccc4c3c2)cc1`, the IC50 in [1] came out at 32 µM; on Neutrophil collagenase, 47 µM; in [2] it was 28 µM; on Collagenase 3 [3] it was 73 µM. Moreover, the Activity result in data set [4] is “Non-Toxic”; in the data set on SN-56 [5] it was “Dose-dependent effect”; in data set [6], 100%. Also, the result with SN-56 [7] was Active.

As for `O=c1[nH]c2ccccc2c2cc(-c3ccccc3)cc(Nc3ccc(F)cc3)c12`, the IC50 was 98 µM in data set [1], > 100 µM at Neutrophil collagenase, 99 µM in [2] and 99 µM on Collagenase 3 [3]. Besides, the Activity entry in [4] is “Non-Toxic”; in the data set with SN-56 [5] it was “Dose-dependent effect”.

Regarding `O=c1[nH]c2ccccc2c2cc(-c3ccco3)cc(Nc3ccccc3)c12`, the IC50 was 25.4 µM in data set [1], > 100 µM on Neutrophil collagenase, > 100 µM in data set [2] and 41.7 µM at Collagenase 3 [3]. Moreover, the Activity entry in [4] is “Non-Toxic”; in the data set on SN-56 [5], “Dose-dependent effect”.

For `O=c1[nH]c2ccccc2c2cc(-c3cccs3)cc(Nc3ccccc3)c12`, the IC50 in data set [1] was 6.1 µM; on Neutrophil collagenase it was 18 µM; in [2] it was 16.1 µM; at Collagenase 3 [3], 15.6 µM. The Activity entry was “Non-Toxic” in data set [4], “Dose-dependent effect” in the data set on SN-56 [5] and 100% in data set [6]. In addition, the result with SN-56 [7] was Active.

With `O=c1[nH]c2ccccc2c2cc(-c3ccco3)cc(Nc3ccc(F)cc3)c12`, the IC50 is 45.4 µM in [1], > 100 µM at Neutrophil collagenase, > 100 µM in data set [2] and > 100 µM on Collagenase 3 [3]. Also, the Activity entry in data set [4] is “Non-Toxic”.

For the molecule `CCCCNc1cc(-c2ccccc2)cc2c1c(=O)[nH]c1ccccc12`, the IC50 in data set [1] came out at 56 µM; at Neutrophil collagenase, 86 µM; in [2] it was 99.5 µM; on Collagenase 3 [3], 60 µM. Also, the Activity result in [4] is “Non-Toxic”; in the data set with SN-56 [5], “Dose-dependent effect”; in data set [6], 100%.

As for `COc1ccc(Nc2cc(-c3ccccc3)cc3c2c(=O)[nH]c2c(OC)c(OC)ccc23)cc1`, the IC50 came out at 42 µM in data set [1], 68 µM on Neutrophil collagenase, 20.5 µM in data set [2] and 37 µM on Collagenase 3 [3]. The Activity entry in [4] was “Non-Toxic”.

With `CCCCNc1cc(-c2cccs2)cc2c1c(=O)[nH]c1ccccc12`, the figures for the IC50 (in [1]; on Neutrophil collagenase; in [2]) were 38 µM, > 100 µM and > 100 µM, respectively. In addition, the Activity result in [4] was “Non-Toxic”; in the data set on SN-56 [5], “Dose-dependent effect”. At Collagenase 3 [8], the inhibition (usually the share of the control response that was lost under treatment) amounted to 54%.

Regarding `COc1ccc(Nc2cc(-c3ccco3)cc3c2c(=O)[nH]c2ccccc23)cc1`, the IC50 stood at 9 µM in data set [1], 23 µM on Neutrophil collagenase, 9 µM in data set [2] and 15 µM at Collagenase 3 [3]. The Activity entry was “Non-Toxic” in data set [4] and “Dose-dependent effect” in the data set on SN-56 [5].

Consider `COc1ccc(Nc2cc(-c3ccccc3)cc3c2c(=O)[nH]c2ccccc23)cc1`, for which the IC50 was 60 µM in data set [1], > 100 µM at Neutrophil collagenase, 22 µM in data set [2] and 16.4 µM at Collagenase 3 [3]. Moreover, the Activity result was “Non-Toxic” in [4], “Dose-dependent effect” with SN-56 [5] and 100% in data set [6]. Also, the result in the data set with SN-56 [7] was Active.

With `Cc1ccc(-c2cc(Nc3ccccc3)c3c(=O)[nH]c4ccccc4c3c2)cc1`, the IC50 in [1] is 84.5 µM; on Neutrophil collagenase it was 62 µM; in [2], 37.5 µM; at Collagenase 3 [3], 41 µM. Also, in data set [4], the Activity result was “Non-Toxic”.

On to `Cc1cc(C)cc(Nc2cc(-c3ccco3)cc3c2c(=O)[nH]c2ccccc23)c1`, for which the IC50 turned out to be 21.6 µM in data set [1], 60 µM at Neutrophil collagenase, 86 µM in [2] and 46 µM on Collagenase 3 [3]. Further, the Activity result in data set [4] is reported as “Non-Toxic”.

With `Nc1cc(-c2cccs2)cc2c1c(=O)[nH]c1ccccc12`, the IC50 (in data set [1]; on Neutrophil collagenase; in data set [2]; on Collagenase 3 [3]) was > 100 µM throughout. Besides, the Activity entry in data set [4] is “Non-Toxic”; in the data set with SN-56 [5] it was “Dose-dependent effect”; in data set [6], 100%. Moreover, the outcome in the data set on SN-56 [7] was Active.

Take `Cn1c(=O)c2c(Nc3ccccc3)cc(-c3ccccc3)cc2c2ccccc21`: the IC50 (in [1]; on Neutrophil collagenase; in data set [2]; on Collagenase 3 [3]) was > 100 µM in each case. Moreover, the Activity result in [4] is recorded as “Non-Toxic”.

In the case of `Nc1cc(-c2ccccc2)cc2c1c(=O)[nH]c1ccccc12`, the IC50 (in [1]; at Neutrophil collagenase; in [2]; at Collagenase 3 [3]) was > 100 µM each time. In data set [4], the Activity entry was “Non-Toxic”.

Regarding `Cc1c(C)c2c(c(C)c1O)CCC(C)(C(=O)O)O2` (stereo not drawn), the outcome with SN-56 [9] was Active.

As for `COc1ccc(-c2cc(Nc3ccccc3)c3c(=O)[nH]c4ccccc4c3c2)cc1`, the IC50 in [1] was 47 µM; at Neutrophil collagenase, 54 µM; in data set [2] it was 32 µM; on Collagenase 3 [3] it was 40 µM. Moreover, the Activity result in data set [4] was “Non-Toxic”; in the data set with SN-56 [5], “Dose-dependent effect”.

Consider `O=c1[nH]c2ccccc2c2cc(-c3cccs3)cc(Nc3ccc(F)cc3)c12`, for which the IC50 was 6.8 µM in data set [1], 26.5 µM on Neutrophil collagenase, 20.1 µM in data set [2] and 15.8 µM at Collagenase 3 [3]. Besides, the figures for the Activity result (in data set [4]; in the data set with SN-56 [5]; in data set [6]) were “Non-Toxic”, “Dose-dependent effect” and 100%, respectively. The outcome with SN-56 [7] was Active.

Source of the values: ChEMBL document CHEMBL4732123, “Discovery of 7-aminophenanthridin-6-one as a new scaffold for matrix metalloproteinase inhibitors with multitarget neuroprotective activity” (Eur J Med Chem, 2021).
